Laboratory results: ChEMBL document CHEMBL1641382, “New imidazoline/α(2)-adrenoceptors affecting compounds-4(5)-(2-aminoethyl)imidazoline (dihydrohistamine) derivatives. Synthesis and receptor affinity studies” (Bioorg Med Chem, 2011)

What was measured:
[1] = Inhibition of Sprague-Dawley rat imidazoline I2 receptor
[2] = target: T1, Adrenergic receptor alpha-2 (Rattus norvegicus, UniProt P22086+P19328+P22909); experiment: Inhibition of Sprague-Dawley rat alpha-2 adrenergic receptor
T1 sequence (P22086 whole entry): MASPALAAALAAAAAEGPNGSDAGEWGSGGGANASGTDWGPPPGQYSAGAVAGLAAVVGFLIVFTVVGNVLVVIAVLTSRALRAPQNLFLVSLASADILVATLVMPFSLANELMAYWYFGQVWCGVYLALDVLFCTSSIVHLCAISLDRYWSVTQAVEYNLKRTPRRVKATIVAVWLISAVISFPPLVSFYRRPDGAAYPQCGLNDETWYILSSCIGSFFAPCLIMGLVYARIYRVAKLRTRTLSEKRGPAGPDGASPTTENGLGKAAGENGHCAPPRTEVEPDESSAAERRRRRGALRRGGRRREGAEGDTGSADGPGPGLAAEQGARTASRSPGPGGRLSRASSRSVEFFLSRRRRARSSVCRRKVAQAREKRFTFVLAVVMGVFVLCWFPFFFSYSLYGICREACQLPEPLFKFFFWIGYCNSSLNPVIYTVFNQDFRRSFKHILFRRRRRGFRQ
T1 sequence (P19328 whole entry): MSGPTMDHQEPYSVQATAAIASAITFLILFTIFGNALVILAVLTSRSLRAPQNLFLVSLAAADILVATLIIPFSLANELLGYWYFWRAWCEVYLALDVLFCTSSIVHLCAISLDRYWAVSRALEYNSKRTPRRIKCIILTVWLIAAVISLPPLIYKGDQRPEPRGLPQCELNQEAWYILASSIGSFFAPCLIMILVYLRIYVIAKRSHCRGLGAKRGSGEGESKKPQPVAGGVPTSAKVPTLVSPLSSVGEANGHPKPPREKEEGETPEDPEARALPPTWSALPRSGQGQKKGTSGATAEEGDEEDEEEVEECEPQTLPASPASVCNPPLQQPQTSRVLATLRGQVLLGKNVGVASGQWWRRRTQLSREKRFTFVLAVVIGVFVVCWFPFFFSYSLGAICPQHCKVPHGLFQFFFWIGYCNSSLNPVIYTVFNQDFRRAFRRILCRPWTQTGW
T1 sequence (P22909 whole entry): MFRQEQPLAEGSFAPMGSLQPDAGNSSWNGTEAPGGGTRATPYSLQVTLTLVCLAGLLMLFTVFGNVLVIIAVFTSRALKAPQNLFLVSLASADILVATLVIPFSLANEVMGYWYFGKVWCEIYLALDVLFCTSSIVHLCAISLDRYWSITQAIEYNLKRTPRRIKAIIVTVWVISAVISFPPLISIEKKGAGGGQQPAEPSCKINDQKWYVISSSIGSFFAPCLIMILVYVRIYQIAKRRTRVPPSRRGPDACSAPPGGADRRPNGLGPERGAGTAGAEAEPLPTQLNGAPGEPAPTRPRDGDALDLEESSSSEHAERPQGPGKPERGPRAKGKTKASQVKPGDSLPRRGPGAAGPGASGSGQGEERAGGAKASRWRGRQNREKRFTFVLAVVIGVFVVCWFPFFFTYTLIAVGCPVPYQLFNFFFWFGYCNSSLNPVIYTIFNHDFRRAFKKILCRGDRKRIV

Nischarin = Nischarin (Rattus norvegicus, UniProt Q4G017); experiment: Inhibition of Sprague-Dawley rat imidazoline I1 receptor
Nischarin, sequence (Q4G017 whole entry): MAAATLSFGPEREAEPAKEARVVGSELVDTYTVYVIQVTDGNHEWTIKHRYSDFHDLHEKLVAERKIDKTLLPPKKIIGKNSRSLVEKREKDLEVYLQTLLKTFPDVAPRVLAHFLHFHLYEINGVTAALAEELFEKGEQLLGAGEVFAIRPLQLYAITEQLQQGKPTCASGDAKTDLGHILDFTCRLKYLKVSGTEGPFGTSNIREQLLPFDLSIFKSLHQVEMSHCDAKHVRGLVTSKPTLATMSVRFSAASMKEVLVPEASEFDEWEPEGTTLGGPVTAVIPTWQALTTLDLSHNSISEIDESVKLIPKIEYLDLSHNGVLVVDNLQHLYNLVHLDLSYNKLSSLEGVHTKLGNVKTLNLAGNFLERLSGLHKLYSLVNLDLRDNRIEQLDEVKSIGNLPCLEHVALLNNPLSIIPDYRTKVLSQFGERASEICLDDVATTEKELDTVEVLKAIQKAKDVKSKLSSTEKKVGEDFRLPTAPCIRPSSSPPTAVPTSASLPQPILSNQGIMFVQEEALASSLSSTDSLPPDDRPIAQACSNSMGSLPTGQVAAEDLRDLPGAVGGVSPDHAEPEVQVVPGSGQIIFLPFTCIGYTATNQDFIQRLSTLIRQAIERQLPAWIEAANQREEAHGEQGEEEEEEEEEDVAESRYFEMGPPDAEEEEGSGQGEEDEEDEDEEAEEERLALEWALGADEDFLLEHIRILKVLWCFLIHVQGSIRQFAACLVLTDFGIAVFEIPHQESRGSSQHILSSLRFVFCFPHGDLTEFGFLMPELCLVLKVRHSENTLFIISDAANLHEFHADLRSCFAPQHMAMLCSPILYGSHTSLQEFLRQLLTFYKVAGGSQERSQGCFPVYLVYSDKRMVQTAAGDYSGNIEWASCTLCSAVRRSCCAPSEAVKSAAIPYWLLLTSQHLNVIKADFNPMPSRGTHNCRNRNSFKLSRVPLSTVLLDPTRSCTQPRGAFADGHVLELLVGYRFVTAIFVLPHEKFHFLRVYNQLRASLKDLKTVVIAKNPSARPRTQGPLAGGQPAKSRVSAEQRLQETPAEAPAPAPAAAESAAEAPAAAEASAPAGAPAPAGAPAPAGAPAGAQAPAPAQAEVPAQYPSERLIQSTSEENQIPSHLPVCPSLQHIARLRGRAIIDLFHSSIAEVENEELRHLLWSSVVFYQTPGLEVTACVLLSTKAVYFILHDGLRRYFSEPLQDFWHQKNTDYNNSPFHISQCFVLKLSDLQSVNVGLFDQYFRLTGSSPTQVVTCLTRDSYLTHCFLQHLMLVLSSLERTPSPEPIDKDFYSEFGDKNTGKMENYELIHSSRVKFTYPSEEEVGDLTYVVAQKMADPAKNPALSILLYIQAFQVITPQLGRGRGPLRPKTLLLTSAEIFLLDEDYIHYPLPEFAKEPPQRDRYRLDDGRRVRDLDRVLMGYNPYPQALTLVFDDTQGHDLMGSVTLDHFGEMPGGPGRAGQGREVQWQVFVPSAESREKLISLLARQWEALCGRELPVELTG

[3] = Inhibition of Wistar rat imidazoline I2 receptor

Br.NCC[C@H]1CNC(Nc2cccnc2)=N1
Ki [1]: > 1000 µM
Ki [2]: 19.66 µM
IC50 (Nischarin): > 1000 µM

Br.NCC[C@H]1CNC(NCc2ccccc2)=N1
Ki [1]: 7.5 µM
Ki [2]: 5.539 µM
IC50 (Nischarin): 101 µM

Br.NCC[C@H]1CNC(Nc2ccc(Cl)cc2Cl)=N1
Ki [1]: 1.76 µM
Ki [2]: 0.854 µM
IC50 (Nischarin): 1.48 µM

Br.Cc1cccc(NC2=N[C@H](CCN)CN2)n1
Ki [1]: 39.6 µM
Ki [2]: 4.907 µM
IC50 (Nischarin): 8.51 µM

Br.NCC[C@H]1CNC(Nc2ccccc2Br)=N1
Ki [1]: 18.8 µM
Ki [2]: 1.553 µM
IC50 (Nischarin): 3.7 µM

Br.NCC[C@H]1CNC(Nc2c(F)cccc2F)=N1
Ki [1]: 21.8 µM
Ki [2]: 13.06 µM
IC50 (Nischarin): 93.1 µM

Br.NCC[C@H]1CNC(Nc2ccc(Br)cc2)=N1
Ki [1]: 81.2 µM
Ki [2]: 25.8 µM
IC50 (Nischarin): 59.4 µM

Br.COc1ccc(NC2=N[C@@H](CCN)CN2)cc1
Ki [1]: 24.9 µM
Ki [2]: 9.376 µM
IC50 (Nischarin): 79.8 µM

Br.NCC[C@H]1CNC(Nc2cccc(Cl)c2)=N1
Ki [1]: 20.3 µM
Ki [2]: 7.018 µM
IC50 (Nischarin): 33.9 µM

Br.Cc1cccc(NC2=N[C@@H](CCN)CN2)n1
Ki [1]: 15.7 µM
Ki [2]: 0.445 µM
IC50 (Nischarin): 7.78 µM

Br.NCC[C@@H]1CNC(Nc2ccc(Cl)cc2Cl)=N1
Ki [1]: 92.5 µM
Ki [2]: 16.92 µM
IC50 (Nischarin): 6.33 µM

Br.NCC[C@H]1CNC(Nc2cccc(C(F)(F)F)c2)=N1
Ki [1]: 12.7 µM
Ki [2]: 3.007 µM
IC50 (Nischarin): 1.31 µM

Br.NCC[C@@H]1CNC(Nc2cccc(C(F)(F)F)c2)=N1
Ki [1]: 47.7 µM
Ki [2]: 26.69 µM
IC50 (Nischarin): 1.25 µM

Br.NCC[C@H]1CNC(Nc2c(Cl)cccc2Cl)=N1
Ki [1]: 2.43 µM
Ki [2]: 1.899 µM
IC50 (Nischarin): 7.75 µM

Br.NCC[C@@H]1CNC(Nc2c(Cl)cccc2Cl)=N1
Ki [1]: 9.56 µM
Ki [2]: 4.315 µM
IC50 (Nischarin): 2.72 µM

Br.NCC[C@H]1CNC(Cc2ccccc2)=N1
Ki [1]: 59.4 µM
Ki [2]: 23.32 µM
IC50 (Nischarin): 278 µM

Br.NCC[C@H]1CNC(Cc2cccc3ccccc23)=N1
Ki [1]: 1 µM
Ki [2]: 0.964 µM
IC50 (Nischarin): > 100 µM

Br.NCC[C@@H]1CNC(Cc2cccc3ccccc23)=N1
Ki [1]: 46.3 µM
Ki [2]: 83.77 µM
IC50 (Nischarin): 583 µM

Br.CCC1(C2=N[C@@H](CCN)CN2)Cc2ccccc2O1 (stereo partly drawn)
Ki [1]: 2.55 µM
Ki [2]: 20.35 µM
IC50 (Nischarin): 1.01 µM

Br.CCC1(C2=N[C@H](CCN)CN2)Cc2ccccc2O1 (stereo partly drawn)
Ki [1]: 18.9 µM
Ki [2]: 0.869 µM
IC50 (Nischarin): 32.5 µM

Br.NCC[C@H]1CNC(C2COc3ccccc3O2)=N1 (stereo partly drawn)
Ki [1]: 8.12 µM
Ki [2]: 24.02 µM
IC50 (Nischarin): 5.11 µM

Br.NCC[C@@H]1CNC(C2COc3ccccc3O2)=N1 (stereo partly drawn)
Ki [1]: 9.61 µM
Ki [2]: 5.412 µM
IC50 (Nischarin): 2.65 µM

Br.NCC[C@H]1CNC(CN(Cc2ccccc2)c2ccccc2)=N1
Ki [1]: 19.1 µM
Ki [2]: 481.8 µM
IC50 (Nischarin): 11.6 µM

Br.NCC[C@H]1CNC(c2ccccc2)=N1
Ki [1]: 3.56 µM
Ki [2]: 43.07 µM
IC50 (Nischarin): 72.9 µM

Br.NCC[C@H]1CNC(c2ccccc2F)=N1
Ki [1]: 27.6 µM
Ki [2]: 178.6 µM
IC50 (Nischarin): 117 µM

Br.NCC[C@H]1CNC(/C=C/c2ccccc2)=N1
Ki [1]: 11.2 µM
Ki [2]: 3.896 µM
IC50 (Nischarin): 17.2 µM

Cl.Cl.NCC[C@H]1CNC(NC(C2CC2)C2CC2)=N1
Ki [1]: 28 µM
Ki [2]: 5.727 µM
IC50 (Nischarin): > 100 µM

NCCCCN=C(N)N [AGMATINE]
Ki [3]: 417 µM

Clc1cccc(Cl)c1NC1=NCCN1 [CLONIDINE]
Ki [1]: 0.364 µM
